In US11266634B2, “Methods for treating melanoma with human therapeutic agents” (Ankh Life Sciences Limited, priority 2014, dated 2022):

How the values were obtained:
[1] = test system: human ovarian cancer cells (A1847); test: Ovarian cancer spheroid cell death test; format: cell-based; conditions: 24 hour exposure to increasing doses; spheroids
Procedure: (§1) The respective cells were individually cultured in a growth medium prepared using RPMI-1640 medium containing 11.1 mM D-glucose with 10% fetal bovine serum, 10 mM HEPES, 2 mM L-glutamine, 1 mM sodium pyruvate, 0.05 mM 2-mercaptoethanol, and Antibiotic-Antimycotic. These cells were maintained in T75 tissue culture flasks in a humidified incubator at 37° C. and 5% CO2. The media were changed on a third day after cell plating, and the cells were passaged on day 5 by trypsinization.
(§2) Custom-made micromolds with 100 μm diameter wells were loaded with the cells (U.S. Pat. No. 8,735,154, incorporated by reference herein). The media were changed every day by partial replacement. Cell aggregates were allowed to form in the micromolds for 72 hours and then were transferred to a 100 mm non-treated tissue culture dishes for 3 additional days. The spheroids were passed through 70 μm and 100 μm cell strainers (#3431751 and #43152, Corning, Tewksbury, Mass.) and maintained in HEPES Balanced Salt Solution comprised of: 20 mM HEPES, 114 mMNaCl, 4.7 mM KCl, 1.2 mM KH2PO4, 1.16 mM MgSO4, 2.5 mM CaCl2, 25.5 mM NaHCO3 and 0.2% bovine serum albumin (fatty acid free), pH 7.2.
(§3) The cells were treated and tested as set forth in Example 1.

[2] = test system: human lung cancer cells (H358); test: Lung cancer spheroid cell death test; format: cell-based; conditions: 24 hour exposure to increasing doses; spheroids
Procedure: as §1, §2
The lymphomas treatment methods used were identical to those described in Example 2 relative to the pediatric leukemia cells, whereas the lung cancer treatment method was the same as described in Example 1.

[3] = test system: human prostate cancer cells (22rv1); test: Prostate cancer spheroid cell death test; format: cell-based; conditions: 24 hour exposure to increasing doses; spheroids
Procedure: as §1, §2, §3

ovarian cancer cells = conditions: low doses of doxorubicin alone (up to 0.158, unit not given)
Procedure: In this test, the synergism of GZ17-6.02 with doxorubicin (a common chemotherapy drug) was tested on ovarian cancer cells. In this test, increasing doses of doxorubicin were administered to ovarian cancer spheroids and cell deaths were measured, as described in Example 1. The protocol involved testing doxorubicin alone at various dosages (FIG. 8, doxorubicin alone—closed circles), with comparative tests using the various dosages of doxorubicin in combination with either 0.2 mg/mL (FIG. 8 open circles) or 0.4 mg/mL (FIG. 8 closed triangles) GZ17-6.02. Additionally, the induced cell death results from use of 0.2 mg/mL GZ17-6.02 alone (FIG. 8, line A) and 0.4 mg/mL GZ17-6.02 alone (FIG. 8, line B) were determined.

| SMILES | cell death (number of live cells) [1] | cell death (number of live cells) [2] | cell death (number of live cells) [3] | cell death, doxorubicin alone (ovarian cancer cells) |
| --- | --- | --- | --- | --- |
| COc1cc(C=O)ccc1O [vanillin] | demonstrated anticancer effects | demonstrated anticancer effects | demonstrated anticancer effects |  |
| CC1=NCCc2c1[nH]c1cc(O)ccc21.Cl [harmalol hydrochloride] | demonstrated anticancer effects | demonstrated anticancer effects | demonstrated anticancer effects |  |
| COc1ccc(C(=O)O)cc1O [isovanillic acid] | demonstrated anticancer effects | demonstrated anticancer effects | demonstrated anticancer effects |  |
| COc1cccc2c1C(=O)c1c(O)c3c(c(O)c1C2=O)C[C@@](O)(C(=O)CO)C[C@@H]3O[C@H]1C[C@H](N)[C@H](O)[C@H](C)O1 [doxorubicin] |  |  |  | ineffective |
| COc1ccc2c3c([nH]c2c1)[C@@H](C)NCC3 [tetrahydro-harmine] | demonstrated anticancer effects | demonstrated anticancer effects | demonstrated anticancer effects |  |
| COc1ccc(CO)cc1O [isovanillyl alcohol] | demonstrated anticancer effects | demonstrated anticancer effects | demonstrated anticancer effects |  |
| COc1ccc2c3c([nH]c2c1)C(C)=NCC3 [harmaline] | demonstrated anticancer effects | demonstrated anticancer effects | demonstrated anticancer effects |  |
| Cc1nccc2c1[nH]c1cc(O)ccc12.Cl [harmole hydrochloride] | demonstrated anticancer effects | demonstrated anticancer effects | demonstrated anticancer effects |  |
| COc1cccc(C=O)c1O [O -vanillin] | demonstrated anticancer effects | demonstrated anticancer effects | demonstrated anticancer effects |  |
